Source: patent US12581252B2, “Substituted pyrrolo[3,4-b]pyridines as PI3K-α inhibitors” (Relay Therapeutics, Inc., priority 2020, dated 2026)

Biological target: H1047R PIK3CA enzyme (Homo sapiens, UniProt P42336, H1047R)
Test: ADP-Glo Biochemical PIK3CA Kinase Assay

Chain of H1047R PIK3CA enzyme (P42336 whole entry H1047R): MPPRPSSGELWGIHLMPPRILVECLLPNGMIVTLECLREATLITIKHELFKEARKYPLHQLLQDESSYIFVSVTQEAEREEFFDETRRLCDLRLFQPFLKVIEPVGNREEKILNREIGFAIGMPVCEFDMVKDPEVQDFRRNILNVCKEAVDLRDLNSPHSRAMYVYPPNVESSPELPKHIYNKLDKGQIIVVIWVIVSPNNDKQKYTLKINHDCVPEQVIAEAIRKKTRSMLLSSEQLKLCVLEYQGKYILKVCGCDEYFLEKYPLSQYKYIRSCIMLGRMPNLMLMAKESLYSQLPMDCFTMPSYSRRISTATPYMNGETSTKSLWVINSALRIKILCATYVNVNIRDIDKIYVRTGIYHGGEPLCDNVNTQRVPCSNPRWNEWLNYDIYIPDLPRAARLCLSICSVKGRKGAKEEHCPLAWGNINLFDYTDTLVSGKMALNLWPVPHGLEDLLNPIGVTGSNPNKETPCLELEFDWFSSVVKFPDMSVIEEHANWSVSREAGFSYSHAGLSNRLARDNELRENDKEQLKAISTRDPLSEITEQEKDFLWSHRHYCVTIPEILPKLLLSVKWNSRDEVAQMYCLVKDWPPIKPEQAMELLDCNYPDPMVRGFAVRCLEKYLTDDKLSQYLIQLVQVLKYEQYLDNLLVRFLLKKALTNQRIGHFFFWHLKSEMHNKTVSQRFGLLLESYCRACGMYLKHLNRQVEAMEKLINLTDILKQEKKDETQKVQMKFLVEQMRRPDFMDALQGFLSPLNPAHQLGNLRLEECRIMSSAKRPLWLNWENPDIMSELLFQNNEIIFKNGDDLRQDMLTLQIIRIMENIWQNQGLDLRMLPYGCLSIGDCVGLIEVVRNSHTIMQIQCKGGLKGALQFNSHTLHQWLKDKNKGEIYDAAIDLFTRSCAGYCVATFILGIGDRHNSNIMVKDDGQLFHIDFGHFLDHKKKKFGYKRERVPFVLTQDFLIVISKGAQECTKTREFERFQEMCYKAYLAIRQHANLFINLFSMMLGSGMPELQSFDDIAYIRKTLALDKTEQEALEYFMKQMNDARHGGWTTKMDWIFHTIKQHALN
Chain of H1047R PIK3CA enzyme (P27986 whole entry partner): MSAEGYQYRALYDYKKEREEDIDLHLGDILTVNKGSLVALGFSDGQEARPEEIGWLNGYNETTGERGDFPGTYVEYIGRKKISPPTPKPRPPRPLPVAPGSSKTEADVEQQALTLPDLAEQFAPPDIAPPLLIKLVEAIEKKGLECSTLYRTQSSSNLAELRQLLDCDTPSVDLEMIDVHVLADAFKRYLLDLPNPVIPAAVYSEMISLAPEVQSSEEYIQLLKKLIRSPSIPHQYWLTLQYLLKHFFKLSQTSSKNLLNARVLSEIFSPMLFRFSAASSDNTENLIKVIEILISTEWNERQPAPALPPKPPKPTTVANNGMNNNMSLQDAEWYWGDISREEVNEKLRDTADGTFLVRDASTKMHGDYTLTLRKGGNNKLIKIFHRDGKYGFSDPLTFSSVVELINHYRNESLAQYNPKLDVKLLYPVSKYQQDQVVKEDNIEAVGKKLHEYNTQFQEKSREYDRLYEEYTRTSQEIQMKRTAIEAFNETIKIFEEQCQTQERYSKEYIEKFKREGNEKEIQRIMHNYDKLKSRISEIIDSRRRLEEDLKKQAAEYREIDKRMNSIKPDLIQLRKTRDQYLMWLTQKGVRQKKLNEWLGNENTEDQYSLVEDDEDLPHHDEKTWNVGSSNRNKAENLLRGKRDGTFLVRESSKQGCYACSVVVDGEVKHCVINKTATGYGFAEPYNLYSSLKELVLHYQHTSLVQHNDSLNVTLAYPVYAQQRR

O=C(Nc1cc(Br)cc2c1[C@@H](c1cc(Cl)ccc1Cl)NC2=O)c1cc(F)cc(C(F)(F)F)c1 [Compound I-764]
IC50: 1000 to 10000 nM

O=C(Nc1cc(Br)cc2c1[C@H](c1cc(Cl)ccc1Cl)NC2=O)c1cc(F)cc(C(F)(F)F)c1 [Compound I-765]
IC50: ≤ 100 nM

O=C1NC(c2cc(F)ccc2Cl)c2c(NC(=O)N3CC(=O)N4CCCC4C3)cc(Br)cc21 (stereo not shown) [Compound I-766]
IC50: 10000 to 100000 nM

O=C(Nc1cccc2c1C(c1cc(F)ccc1Cl)NC2=O)c1cc(Cl)cc(F)c1F (stereo not shown) [Compound I-767]
IC50: 100 to 500 nM

O=C(Nc1cccc2c1C(c1cc(F)ccc1Cl)NC2=O)c1cc(F)cnc1NC1CCC1 (stereo not shown) [Compound I-768]
IC50: 1000 to 10000 nM

O=C1NC(c2cc(F)ccc2Cl)c2c(NC(=O)N3CCCC3c3ccccc3)cc(Br)cc21 (stereo not shown) [Compound I-769]
IC50: 1000 to 10000 nM

O=C1NC(c2cc(F)ccc2Cl)c2c(NC(=O)N3CCCCC3c3ccccc3)cc(Br)cc21 (stereo not shown) [Compound I-772]
IC50: 1000 to 10000 nM

COc1cc(NC(=O)c2cc(F)cc(C(F)(F)F)c2)c2c(c1)C(=O)NC2c1cc(F)ccc1Cl (stereo not shown) [Compound I-773]
IC50: ≤ 100 nM

O=C(Nc1cc(Br)cc2c1C(c1cc(F)ccc1Cl)NC2=O)c1cc(F)cc(S(F)(F)(F)(F)F)c1 (stereo not shown) [Compound I-774]
IC50: ≤ 100 nM

CP(C)(=O)Cc1cc(NC(=O)c2cc(F)cc(C(F)(F)F)c2)c2c(c1)C(=O)NC2c1cc(F)ccc1Cl (stereo not shown) [Compound I-775]
IC50: ≤ 100 nM

O=C(Nc1cc(C2CC(F)(F)C2)cc2c1C(c1cc(F)ccc1Cl)NC2=O)c1cc(F)cc(C(F)(F)F)c1 (stereo not shown) [Compound I-779]
IC50: ≤ 100 nM

COc1ncc(-c2cc(NC(=O)c3cc(F)cc(C(F)(F)F)c3)c3c(c2)C(=O)NC3c2cc(F)ccc2Cl)cn1 (stereo not shown) [Compound I-782]
IC50: ≤ 100 nM

Cc1ncc(-c2cc(NC(=O)c3cc(F)cc(C(F)(F)F)c3)c3c(c2)C(=O)N[C@@H]3c2cc(F)ccc2Cl)cn1 [Compound I-783]
IC50: 1000 to 10000 nM

Cc1ncc(-c2cc(NC(=O)c3cc(F)cc(C(F)(F)F)c3)c3c(c2)C(=O)N[C@H]3c2cc(F)ccc2Cl)cn1 [Compound I-784]
IC50: ≤ 100 nM

O=C(Nc1cc(Br)cc2c1C(c1cc(Cl)cc(F)c1F)NC2=O)c1cc(F)cc(C(F)(F)F)c1 (stereo not shown) [Compound I-785]
IC50: ≤ 100 nM

O=C(Nc1cc(Br)cc2c1[C@H](c1cc(Cl)cc(F)c1F)NC2=O)c1cc(F)cc(C(F)(F)F)c1 [Compound I-786]
IC50: ≤ 100 nM

O=C(Nc1cc(Br)cc2c1[C@@H](c1cc(Cl)cc(F)c1F)NC2=O)c1cc(F)cc(C(F)(F)F)c1 [Compound I-787]
IC50: 1000 to 10000 nM

O=C(Nc1cc(Br)cc2c1C(c1cc(F)ccc1Cl)NC2=O)c1cc(F)ccc1OC(F)(F)F (stereo not shown) [Compound I-788]
IC50: 1000 to 10000 nM

O=C(Nc1cc(Br)cc2c1[C@H](c1ccccc1C(F)F)NC2=O)c1cc(F)cc(C(F)(F)F)c1 [Compound I-789]
IC50: ≤ 100 nM

O=C(Nc1cc(Br)cc2c1[C@@H](c1ccccc1C(F)F)NC2=O)c1cc(F)cc(C(F)(F)F)c1 [Compound I-790]
IC50: 1000 to 10000 nM

O=C(Nc1cc(Br)cc2c1C(c1cc(F)ccc1Cl)NC2=O)c1cc(F)ccc1Cl (stereo not shown) [Compound I-791]
IC50: 10000 to 100000 nM

O=C(Nc1cc(Br)cc2c1C(c1ccccc1C(F)F)NC2=O)c1cc(F)cc(C(F)(F)F)c1 (stereo not shown) [Compound I-792]
IC50: ≤ 100 nM

O=C(Nc1cc(Br)cc2c1C(c1cc(F)ccc1Cl)NC2=O)c1cc(F)ccc1F (stereo not shown) [Compound I-793]
IC50: 1000 to 10000 nM

O=C(Nc1cc(Br)cc2c1C(c1cc(F)ccc1Cl)NC2=O)c1cc(Cl)ccc1F (stereo not shown) [Compound I-794]
IC50: 1000 to 10000 nM

O=C(Nc1cc(Br)cc2c1C(c1cc(F)ccc1Cl)NC2=O)c1cc(Cl)ccc1Cl (stereo not shown) [Compound I-795]
IC50: 1000 to 10000 nM

COc1ccc(F)cc1C(=O)Nc1cc(Br)cc2c1C(c1cc(F)ccc1Cl)NC2=O (stereo not shown) [Compound I-796]
IC50: 1000 to 10000 nM

O=C(Nc1cc(Br)cc2c1[C@H](c1cc(F)ccc1C(F)F)NC2=O)c1cc(F)cc(C(F)(F)F)c1 [Compound I-797]
IC50: ≤ 100 nM

O=C(Nc1cc(Br)cc2c1[C@@H](c1cc(F)ccc1C(F)F)NC2=O)c1cc(F)cc(C(F)(F)F)c1 [Compound I-798]
IC50: 1000 to 10000 nM
